Values joined by “and” are separate entries in the source; they are usually repeats but may differ in a detail not shown here. Equal entries are not always repeated. Toxic doses and inconclusive results are not listed. No stated cut-off is given here; in the data, active means T/C of 150% or more; inactive means T/C below 125%.
System: L1210 leukemia ip in BDF1 mice, survival T/C
Assay: NCI In Vivo Anticancer Drug Screen. Data for tumor model L1210 Leukemia (intraperitoneal) in B6D2F1 (BDF1) mice
Conditions: higher = longer survival
Procedure, shortened: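 Mice bearing the transplanted tumor received compound or vehicle. Survival of the treated group was divided by that of the vehicle-treated control group to give the ratio.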

[1] = endpoint: mean survival time, dose: 100.0 mg/kg/injection, schedule: Q01DX009 (ip), vehicle: saline
[2] = endpoint: mean survival time, dose: 100.0 mg/kg/injection, schedule: Q01DX001 (ip), vehicle: Klucel (hydroxypropylcellulose) (HPC)
[3] = endpoint: mean survival time, dose: 200.0 mg/kg/injection, schedule: Q01DX001 (ip), vehicle: Klucel (hydroxypropylcellulose) (HPC)
[4] = endpoint: mean survival time, dose: 400.0 mg/kg/injection, schedule: Q01DX001 (ip), vehicle: Klucel (hydroxypropylcellulose) (HPC)
[5] = endpoint: mean survival time, dose: 100.0 mg/kg/injection, schedule: Q01DX009 (ip), vehicle: Klucel (hydroxypropylcellulose) (HPC)
[6] = endpoint: mean survival time, dose: 100.0 mg/kg/injection, schedule: Q04DX003 (ip), vehicle: Klucel (hydroxypropylcellulose) (HPC)
[7] = endpoint: mean survival time, dose: 200.0 mg/kg/injection, schedule: Q01DX009 (ip), vehicle: Klucel (hydroxypropylcellulose) (HPC)
[8] = endpoint: mean survival time, dose: 200.0 mg/kg/injection, schedule: Q04DX003 (ip), vehicle: Klucel (hydroxypropylcellulose) (HPC)
[9] = endpoint: mean survival time, dose: 400.0 mg/kg/injection, schedule: Q01DX009 (ip), vehicle: Klucel (hydroxypropylcellulose) (HPC)
[10] = endpoint: mean survival time, dose: 400.0 mg/kg/injection, schedule: Q04DX003 (ip), vehicle: Klucel (hydroxypropylcellulose) (HPC)
[11] = endpoint: mean survival time, dose: 50.0 mg/kg/injection, schedule: Q01DX009 (ip), vehicle: Klucel (hydroxypropylcellulose) (HPC)

Measured: T/C

C[N+](C)(C)Cc1ccco1
inactive: endpoint: mean survival time, dose: 25.0 mg/kg/injection, schedule: Q01DX009 (ip), vehicle: saline 103 % of control | endpoint: mean survival time, dose: 50.0 mg/kg/injection, schedule: Q01DX009 (ip), vehicle: saline 93 % of control | [1] 95 % of control and 90 % of control

CCCCCCC(=O)O[C@H]1CC[C@H]2[C@@H]3CCC4=CC(=O)CC[C@]4(C)[C@H]3CC[C@]12C
inactive: endpoint: median survival time, dose: 2.0 mg/kg/injection, schedule: Q04DX024 (ip), vehicle: other 94 % of control | endpoint: median survival time, dose: 4.0 mg/kg/injection, schedule: Q01DX016 (ip), vehicle: other 92 % of control | endpoint: median survival time, dose: 4.0 mg/kg/injection, schedule: Q04DX024 (ip), vehicle: other 94 % of control | endpoint: median survival time, dose: 8.0 mg/kg/injection, schedule: Q01DX008 (ip), vehicle: other 95 % of control | endpoint: median survival time, dose: 8.0 mg/kg/injection, schedule: Q01DX009 (ip), vehicle: other 98 % of control | endpoint: median survival time, dose: 8.0 mg/kg/injection, schedule: Q01DX016 (ip), vehicle: other 92 % of control | endpoint: median survival time, dose: 8.0 mg/kg/injection, schedule: Q04DX024 (ip), vehicle: other 91 % of control | endpoint: median survival time, dose: 16.0 mg/kg/injection, schedule: Q01DX008 (ip), vehicle: other 95 % of control | endpoint: median survival time, dose: 16.0 mg/kg/injection, schedule: Q01DX009 (ip), vehicle: other 97 % of control | endpoint: median survival time, dose: 16.0 mg/kg/injection, schedule: Q01DX016 (ip), vehicle: other 90 % of control | endpoint: median survival time, dose: 16.0 mg/kg/injection, schedule: Q04DX003 (ip), vehicle: other 98 % of control | endpoint: median survival time, dose: 16.0 mg/kg/injection, schedule: Q04DX024 (ip), vehicle: other 94 % of control | endpoint: median survival time, dose: 32.0 mg/kg/injection, schedule: Q01DX008 (ip), vehicle: other 112 % of control | endpoint: median survival time, dose: 32.0 mg/kg/injection, schedule: Q01DX009 (ip), vehicle: other 111 % of control | endpoint: median survival time, dose: 32.0 mg/kg/injection, schedule: Q01DX016 (ip), vehicle: other 95 % of control | endpoint: median survival time, dose: 32.0 mg/kg/injection, schedule: Q04DX003 (ip), vehicle: other 100 % of control | endpoint: median survival time, dose: 32.0 mg/kg/injection, schedule: Q04DX024 (ip), vehicle: other 92 % of control | endpoint: median survival time, dose: 32.0 mg/kg/injection, schedule: Q08DX002 (ip), vehicle: other 102 % of control | endpoint: median survival time, dose: 64.0 mg/kg/injection, schedule: Q01DX001 (ip), vehicle: other 98 % of control | endpoint: median survival time, dose: 64.0 mg/kg/injection, schedule: Q01DX008 (ip), vehicle: other 91 % of control | endpoint: median survival time, dose: 64.0 mg/kg/injection, schedule: Q01DX009 (ip), vehicle: other 92 % of control | endpoint: median survival time, dose: 64.0 mg/kg/injection, schedule: Q01DX016 (ip), vehicle: other 89 % of control | endpoint: median survival time, dose: 64.0 mg/kg/injection, schedule: Q04DX003 (ip), vehicle: other 107 % of control | endpoint: median survival time, dose: 64.0 mg/kg/injection, schedule: Q08DX002 (ip), vehicle: other 98 % of control | endpoint: median survival time, dose: 128.0 mg/kg/injection, schedule: Q01DX001 (ip), vehicle: other 104 % of control | endpoint: median survival time, dose: 128.0 mg/kg/injection, schedule: Q01DX009 (ip), vehicle: other 97 % of control | endpoint: median survival time, dose: 128.0 mg/kg/injection, schedule: Q04DX003 (ip), vehicle: other 101 % of control | endpoint: median survival time, dose: 128.0 mg/kg/injection, schedule: Q08DX002 (ip), vehicle: other 101 % of control | endpoint: median survival time, dose: 256.0 mg/kg/injection, schedule: Q01DX001 (ip), vehicle: other 122 % of control | endpoint: median survival time, dose: 256.0 mg/kg/injection, schedule: Q01DX009 (ip), vehicle: other 106 % of control | endpoint: median survival time, dose: 256.0 mg/kg/injection, schedule: Q04DX003 (ip), vehicle: other 102 % of control | endpoint: median survival time, dose: 256.0 mg/kg/injection, schedule: Q08DX002 (ip), vehicle: other 104 % of control | endpoint: median survival time, dose: 512.0 mg/kg/injection, schedule: Q01DX001 (ip), vehicle: other 101 % of control | endpoint: median survival time, dose: 512.0 mg/kg/injection, schedule: Q08DX002 (ip), vehicle: other 106 % of control

CCC(=O)OC1(c2ccccc2)CCN(CCC(O)c2ccccc2)CC1C (centres undefined)
inactive: endpoint: mean survival time, dose: 20.0 mg/kg/injection, schedule: Q04DX003 (ip), vehicle: Klucel (hydroxypropylcellulose) (HPC) 105 % of control | endpoint: mean survival time, dose: 40.0 mg/kg/injection, schedule: Q04DX003 (ip), vehicle: Klucel (hydroxypropylcellulose) (HPC) 105 % of control

N#Cc1ccccc1CNc1ccccc1
inactive: [2] 94 % of control | [3] 96 % of control | [4] 96 % of control

Nc1cccc(S(=O)(=O)c2cccc(N)c2)c1
inactive: [5] 100 % of control | [6] 97 % of control | [7] 94 % of control | [8] 94 % of control | [9] 92 % of control | [10] 94 % of control

COC(=O)CCC(C(=O)CN1C(=O)c2ccccc2C1=O)N1C(=O)c2ccccc2C1=O (centres undefined)
inactive: endpoint: mean survival time, dose: 100.0 mg/kg/injection, schedule: Q04DX003 (ip), vehicle: saline with Tween-80 96 % of control | endpoint: mean survival time, dose: 200.0 mg/kg/injection, schedule: Q04DX003 (ip), vehicle: saline with Tween-80 92 % of control | endpoint: mean survival time, dose: 400.0 mg/kg/injection, schedule: Q04DX003 (ip), vehicle: saline with Tween-80 92 % of control

O=C1C2C=CC=CC1C=C2
inactive: [11] 89 % of control | [2] 92 % of control | [5] 112 % of control | [3] 101 % of control | [7] 91 % of control | [4] 95 % of control

O=S(=O)(F)c1cc(Cl)cc(Cl)c1O
inactive: endpoint: mean survival time, dose: 100.0 mg/kg/injection, schedule: Q04DX002 (ip), vehicle: other 93 % of control | endpoint: mean survival time, dose: 200.0 mg/kg/injection, schedule: Q04DX002 (ip), vehicle: other 93 % of control | endpoint: mean survival time, dose: 400.0 mg/kg/injection, schedule: Q04DX002 (ip), vehicle: other 104 % of control

CNC1(Cc2ccc(F)cc2)CCC1
inactive: [1] 100 % of control

CC1(C)CNC(C(=O)O)C1 (centres undefined)
inactive: endpoint: mean survival time, dose: 100.0 mg/kg/injection, schedule: Q01DX009 (ip), vehicle: saline with Tween-80 100 % of control | endpoint: mean survival time, dose: 100.0 mg/kg/injection, schedule: Q04DX003 (ip), vehicle: saline 96 % of control | endpoint: mean survival time, dose: 200.0 mg/kg/injection, schedule: Q01DX009 (ip), vehicle: saline with Tween-80 96 % of control | endpoint: mean survival time, dose: 200.0 mg/kg/injection, schedule: Q04DX003 (ip), vehicle: saline 95 % of control | endpoint: mean survival time, dose: 400.0 mg/kg/injection, schedule: Q04DX003 (ip), vehicle: saline 98 % of control

COc1ccc([N+](=O)[O-])cc1NC(=O)COc1cc(Cl)c(Cl)cc1Cl
inactive: [5] 94 % of control | [7] 108 % of control | [9] 94 % of control

CC(=O)Nc1ccc(Cl)cc1C(=O)O
inactive: [5] 97 % of control | [6] 97 % of control | [7] 90 % of control | [8] 94 % of control | [9] 93 % of control | [10] 102 % of control

CC(=O)OCCc1ccc2c(c1)OCO2
inactive: endpoint: mean survival time, dose: 100.0 mg/kg/injection, schedule: Q04DX002 (ip), vehicle: Klucel (hydroxypropylcellulose) (HPC) 97 % of control | endpoint: mean survival time, dose: 200.0 mg/kg/injection, schedule: Q04DX002 (ip), vehicle: Klucel (hydroxypropylcellulose) (HPC) 112 % of control | endpoint: mean survival time, dose: 400.0 mg/kg/injection, schedule: Q04DX002 (ip), vehicle: Klucel (hydroxypropylcellulose) (HPC) 115 % of control

CC(=O)c1ccc2c3ccccc3n(CCCN3CCC(O)CC3)c2c1
inactive: endpoint: mean survival time, dose: 100.0 mg/kg/injection, schedule: Q04DX002 (ip), vehicle: saline 95 % of control | endpoint: mean survival time, dose: 200.0 mg/kg/injection, schedule: Q04DX002 (ip), vehicle: saline 113 % of control

CC(=O)C1=CN(c2ccccc2)COC1C (centres undefined)
inactive: [11] 107 % of control | [5] 91 % of control | [7] 100 % of control

C[N+]1(C)CC2CCCCC1C2O (centres undefined)
inactive: endpoint: mean survival time, dose: 75.0 mg/kg/injection, schedule: Q01DX001 (ip), vehicle: saline 108 % of control | endpoint: mean survival time, dose: 150.0 mg/kg/injection, schedule: Q01DX001 (ip), vehicle: saline 104 % of control

NC1=NC(=O)C(c2ccccc2)O1 (centres undefined)
inactive: endpoint: mean survival time, dose: 25.0 mg/kg/injection, schedule: Q01DX009 (ip), vehicle: Klucel (hydroxypropylcellulose) (HPC) 88 % of control | endpoint: mean survival time, dose: 25.0 mg/kg/injection, schedule: Q04DX003 (ip), vehicle: Klucel (hydroxypropylcellulose) (HPC) 92 % of control | [11] 94 % of control | endpoint: mean survival time, dose: 50.0 mg/kg/injection, schedule: Q04DX003 (ip), vehicle: Klucel (hydroxypropylcellulose) (HPC) 95 % of control | [5] 91 % of control | [6] 103 % of control | [7] 102 % of control | [8] 103 % of control | [10] 89 % of control

Source: PubChem BioAssay AID248 (DTP/NCI, 2004)
